Earlier results on two compounds are cited in US20070264289A1, “COMPOSITIONS AND METHODS OF ADMINISTERING DOXEPIN TO MUCOSAL TISSUE” (EOT Research Inc., priority 2003, published 2007).

Each structure is given as a SMILES string. Where a name gives a salt, the structure may show the parent alone.

The conditions of data set [1]: metabolite formed in the liver after systemic absorption of doxepin.
The conditions of data set [2]: systemic doxepin; drowsiness in a significant number of patients at this range.

For `CNCCC=C1c2ccccc2COc2ccccc21` [Desmethyldoxepin, desmethyldoxepin], the half-life in data set [1] was 28 to 52 h.

`CN(C)CCC=C1c2ccccc2COc2ccccc21` [doxepin, N,N-dimethyldibenz(b,e)oxepin-propylamine hydrochloride]: in data set [2], the “target plasma therapeutic range for treatment of depression” value is 30 to 150 ng/mL.
